PMC7904233 (Journal of medicinal chemistry, 2020)
Read-outs that look alike come from different tables or passages of the source.

Assays:
[1] = system: pEBOV Zaire (Mayinga variant); test: microbe, parasite or virus in culture; format: cell-based, Zaire ebolavirus; conditions: for IC50: read-out: IC50 (μM) pEBOV
ER = conditions: cited from earlier work; for Kd: read-out: Kd for ER
[2] = system: infectious EBOV Zaire (Kikwit variant); format: cell-based, Zaire ebolavirus
pMARV (Musoke variant) = test: microbe, parasite or virus in culture; format: cell-based, Marburg virus; conditions: read-out: IC50 (μM) pMARV
pMLAV = format: cell-based, Měnglà virus
ERα = format: cell-based, human
pVSV = format: cell-based, vesicular stomatitis virus
pAIV-H5N1 = format: cell-based, H5N1 avian influenza virus
pTFV = format: cell-based, ebolavirus Tai Forest
pRESTV = format: cell-based, ebolavirus Reston
[3] = system: infectious MARV (Angola variant); format: cell-based, Marburg virus
[4] = Human immunodeficiency virus 1, A549, 48 h

Compound: CN(C)CCOc1ccc(/C(=C(/CCCl)c2ccccc2)c2ccccc2)cc1 [Compound 1, Toremifene]
- IC50 [1, 4]: < 0.1 µM

Compound: CC/C(=C(\c1ccccc1)c1ccc(OCCN(C)C)cc1)c1ccccc1 [Compound 5, Tamoxifen]
- ER affinity (ER): 13.8 nM

Compound: COc1ccc2c(c1)CCC(c1ccccc1)=C2c1ccc(OCCN2CCCC2)cc1 [Compound 6, Nafoxidine]
- IC50 [1, 4]: 0.1 ± 0.009 µM

Compound: Cc1c(-c2ccc(O)cc2)nn(-c2ccc(O)cc2)c1-c1ccc(OCCN2CCCCC2)cc1 [Compound 23, MPP]
- Kd (ER): 1.8 nM

Compound: CC/C(=C(/c1ccc(N)cc1)c1ccc(OCCN2CCCC2)cc1)c1ccccc1 [Compound 27, (E)-4-(2-phenyl-1-(4-(2-(pyrrolidin-1-yl)ethoxy)phenyl)but-1-en-1-yl)aniline]
- fold weaker than 9 [2]: 10 fold

Compound: CC/C(=C(/c1ccc(NCCN2CCCC2)cc1)c1ccc(OCCN2CCCC2)cc1)c1ccccc1 [Compound 28, (E)-4-(2-phenyl-1-(4-(2-(pyrrolidin-1-yl)ethoxy)phenyl)but-1-en-1-yl)-N-(2-(pyrrolidin-1-yl)ethyl)aniline]
- IC50 (pMARV (Musoke variant); [4]): > 12.5 µM

Compound: CC/C(=C(/c1ccc(NC(=O)C2CCN(C)C2)cc1)c1ccc(OCCN2CCCC2)cc1)c1ccccc1 (stereo not drawn) [Compound 32, (E)-1-methyl-N-(4-(2-phenyl-1-(4-(2-(pyrrolidin-1-yl)ethoxy)phenyl)but-1-en-1-yl)phenyl)pyrrolidine-3-carboxamide]
- inhibition of viral entry (in words) (pMLAV): improved potency
- antagonist activity at ER (in words) (ERα): no antagonist activity
- inhibition of pVSV (in words) (pVSV): Neither compounds showed appreciable inhibition
- inhibition of pAIV-H5N1 (in words) (pAIV-H5N1): Neither compounds showed appreciable inhibition
- inhibition of viral entry (in words) (pTFV): improved potency
- inhibition of viral entry (in words) (pRESTV): improved potency

Compound: (E)-1-methyl-N-(4-(2-phenyl-1-(4-(2-(pyrrolidin-1-yl)ethoxy)phenyl)but-1-en-1-yl)phenyl)piperidine-4-carboxamide [Compound 30]
- fold more potent than 1 [3]: 6 fold
- IC50 ([3]; read-out: IC50 (μM) MARV): 0.64 ± 0.12 µM
- inhibition of viral entry (in words) (pMLAV): improved potency
- antagonist activity at ER (in words) (ERα): no antagonist activity
- IC50 [1]: 0.01 ± 0.005 µM
- inhibition of pVSV (in words) (pVSV): Neither compounds showed appreciable inhibition
- inhibition of pAIV-H5N1 (in words) (pAIV-H5N1): Neither compounds showed appreciable inhibition
- inhibition of viral entry (in words) (pTFV): improved potency
- inhibition of viral entry (in words) (pRESTV): improved potency
- fold more potent than 1 [2]: 10 fold
- IC50 ([2]; read-out: IC50 (μM) EBOV): 0.09 ± 0.03 µM
- IC50 (pMARV (Musoke variant)): 0.54 ± 0.05 µM

Compound: Acolbifene [Compound 10]
- fold weaker than 1 [1]: more than 20 fold
- IC50 [1]: 1.5 ± 0.3 µM
